These results are taken from PMC10865806, “Structural insights into the molecular mechanism of high-level ceftazidime–avibactam resistance conferred by CMY-185” (mBio, 2024).

Structures are written as SMILES. ≈ marks a conversion by molar mass, not a printed value.

One assay relates to CMY-178. To be noted: cited from earlier work.
For a further assay, the system named is AmpC^Ent385. Further details: method as in PMID 32284381. The conditions noted are these: lowest Km reported to date; cited from earlier work.
In a further assay the target is T1, V211S (CMY-42) (Klebsiella pneumoniae, UniProt Q48434, V231S).
T1 construct: all CMY-2 variant genes encoding the mature enzyme without a signal peptide were cloned into the protein expression plasmid vector pET-30b; made in house; host or cells: E. coli BL21 (DE3), pET-30b
Kind of assay: Steady-state hydrolysis kinetics. The format is biochemical, Escherichia coli. To be noted: PBS pH 7.2, 25°C. An excerpt: (§1) We tested the enzymes, CMY-2, two single mutants V211S (CMY-42) and N346Y, three double mutants A114E_N346Y, Q120K_N346Y, and V211S_N346Y, and the quadruplet mutant CMY-185 to elucidate the impact on the kinetic properties resulting from the four amino acid substitutions present in CMY-185 compared with CMY-2 ([8]). The steady-state kinetic parameters kcat and Km (or Ki app) for nitrocefin, cephalothin, ceftazidime, and cefiderocol and the inhibition parameters Ki app, k2/K, k−2, and koff for avibactam are summarized in Table 1. During the hydrolysis of nitrocefin, we observed the reduction of the initial velocity at concentrations above 50 µM particularly for the CMY-2 variants harboring the N346Y substitution. As this could have represented substrate inhibition, we then determined the kinetics parameters for nitrocefin using the Haldane equation ([16]). […] In addition, during the hydrolysis of cefiderocol by CMY-185, the initial velocities at a concentration range of 3.7–59.4 µM were similar.
(§2) The steady-state kinetics were carried out on a UV-Visible spectrometer (UV-1280, Shimadzu, Japan) in PBS pH 7.2 at 25°C with a constant amount of enzyme and varying concentrations of the substrates. We tested nitrocefin, cephalothin, ceftazidime, and cefiderocol as the substrates and avibactam as the inhibitor. The steady-state kinetics parameters Km and kcat were determined with the Michaelis-Menten equation. For poorly hydrolyzed substrates, the Km value was assumed to be the competitive inhibition constant (Ki app) value according to previous studies ([17], [19]). Inhibition parameter values of Ki app, k2/K, k−2, and koff for avibactam were determined using a method as described previously ([33]). Cephalothin was used as the reporter substrate for competitive inhibition experiments, and its concentration was fixed at 100 µM. The enzyme concentration was 1–10 nM. Inverse steady-state initial velocities were plotted against the concentration of the competitive inhibitor agents, such as ceftazidime, cefiderocol, and avibactam. The data were analyzed by linear regression analysis of the Dixon plot, and Ki app (observed) was determined by dividing the y-intercept value by the slope of the line. It was then corrected to account for the affinity of cephalothin for each enzyme using the Equation (1): […]

Assay [1] addresses T2, CMY-2 variant V211S_N346Y (Klebsiella pneumoniae, UniProt Q48434, N366Y/V231S).
T2 construct: all CMY-2 variant genes encoding the mature enzyme without a signal peptide were cloned into the protein expression plasmid vector pET-30b; made in house; host or cells: E. coli BL21 (DE3), pET-30b
Kind of assay: Steady-state hydrolysis kinetics. The class given is biochemical, Escherichia coli.
Description: as §1, §2

The target in a further assay is T3, CMY-185 (Klebsiella pneumoniae, UniProt Q48434, A134E/N366Y/Q140K/V231S).
T3 construct: all CMY-2 variant genes encoding the mature enzyme without a signal peptide were cloned into the protein expression plasmid vector pET-30b; made in house; host or cells: E. coli BL21 (DE3), pET-30b
Kind of assay: Steady-state hydrolysis kinetics. The class given is biochemical, Escherichia coli.
Description: as §1, §2

Assay [2] has as its target T4, CMY-2 variant Q120K_N346Y (Klebsiella pneumoniae, UniProt Q48434, N366Y/Q140K).
T4 construct: all CMY-2 variant genes encoding the mature enzyme without a signal peptide were cloned into the protein expression plasmid vector pET-30b; made in house; host or cells: E. coli BL21 (DE3), pET-30b
Kind of assay: Steady-state hydrolysis kinetics. The class given is biochemical, Escherichia coli. To be noted: substrate 100 µM, 100–200 nM enzyme.
Description: as §1, §2

For another assay, the target named is T5, CMY-2 (Klebsiella pneumoniae, UniProt Q48434).
T5 construct: all CMY-2 variant genes encoding the mature enzyme without a signal peptide were cloned into the protein expression plasmid vector pET-30b; made in house; host or cells: E. coli BL21 (DE3), pET-30b
Description: Steady-state hydrolysis kinetics. To be noted: substrate 100 µM, 100–200 nM enzyme. The format is biochemical, Escherichia coli.
Description: as §1
as §2, with “The enzyme concentration was 1–10 nM.” left out

Another assay deals with T6, CMY-2 variant N346Y (Klebsiella pneumoniae, UniProt Q48434, N366Y).
T6 construct: all CMY-2 variant genes encoding the mature enzyme without a signal peptide were cloned into the protein expression plasmid vector pET-30b; made in house; host or cells: E. coli BL21 (DE3), pET-30b
Description: Steady-state hydrolysis kinetics. The format is biochemical, Escherichia coli. The conditions noted are these: substrate 100 µM, 100–200 nM enzyme.
Description: as §1
as §2, with “The enzyme concentration was 1–10 nM.” left out

In assay [3] the target is T7, CMY-2 variant A114E_N346Y (Klebsiella pneumoniae, UniProt Q48434, A134E/N366Y).
T7 construct: all CMY-2 variant genes encoding the mature enzyme without a signal peptide were cloned into the protein expression plasmid vector pET-30b; made in house; host or cells: E. coli BL21 (DE3), pET-30b
Description: Steady-state hydrolysis kinetics. The class given is biochemical, Escherichia coli. To be noted: substrate 100 µM, 100–200 nM enzyme.
Description: as §1
as §2, with “The enzyme concentration was 1–10 nM.” left out

In another assay the test system is CMY-172. The conditions noted are these: cited from earlier work.

As to `CC(C)(O/N=C(\C(=O)N[C@@H]1C(=O)N2C(C(=O)[O-])=C(C[N+]3(CCNC(=O)c4ccc(O)c(O)c4Cl)CCCC3)CS[C@H]12)c1csc(N)n1)C(=O)O` [Cefiderocol, cefiderocol], the MIC with CMY-178 and in the assay on CMY-172 was 1 µg/mL (≈ 1.33 µM) throughout. Further, the Km with AmpC^Ent385 was 49.8 µM; at V211S (CMY-42) it was 68 ± 11 µM; in assay [1] (V211S_N346Y, PBS pH 7.2, 25°C) it was 6.9 ± 1.5 µM. Moreover, the kcat at V211S (CMY-42) is 0.034 ± 0.002 s⁻¹; at V211S (CMY-42) (listed as cefiderocol), “(3.4 ± 0.2) × 10^−2 s^−1”; in assay [1] (V211S_N346Y, PBS pH 7.2, 25°C), 0.049 ± 0.003 s⁻¹; on CMY-185 (determined with steady-state velocities (cefiderocol 3.7–59.4 µM) and Ki app assumed to Km), 6.9 × 10^−3 ± 0.4 ×10^−3 a s^−1. The “fold lower Km” value in assay [1] (V211S_N346Y compared to V211S) is 10 fold. The kcat/Ki app at CMY-185 (kcat/Ki app shown in the kcat/Km line) is 3.0 × 10^−2 ± 0.2 × 10^−2 b µM^−1 s^−1. The hydrolysis result (in [2]; at CMY-2; on CMY-2 variant N346Y; in [3]) was “no apparent hydrolysis” throughout.
